Test results taken from US8114406B2, “Peptides and their utility in modulation of behavior of cells expressing α3β1 integrins” (The United States of America as represented by the …, priority 1999, dated 2012).
Where two headings read alike, the source gives them in different places. Where a SMILES comes first, the peptide text is derived from it. Where no end group is shown, it is not given here.

Tests used:
[1] = test system: MDA-MB-435 breast carcinoma cells; assay: Inhibition of MDA-MB-435 cell adhesion to immobilized peptide 678 (microscopic adhesion assay); assay type: cell-based, human
Protocol: (§1) Adhesion assays of cells other than small cell lung carcinoma (SCLC)-Adhesion was measured on polystyrene or glass substrates coated with peptides or proteins as previously described (Guo et al., 1992). Peptides dissolved in PBS at 0.4 to 50 μM were incubated in polystyrene microliter plate wells overnight at 4° C. The wells were washed 3 times with distilled water. Adsorbed peptide was quantified using the BCA assay (Pierce Chemical) measuring absorbance at 570 and 630 nm as described by the supplier's protocol. The assay for adsorption was calibrated using purified peptide in solution as a standard. After blocking with 1% BSA in Dulbecco's PBS, adhesion assays were performed by adding cells suspended in DMEM (BAE cells) or medium 199 (human cells) containing 1 mg/ml BSA. Cell attachment and spreading was quantified microscopically.

HUVEC = HUVEC spreading on coated substrates; assay type: cell-based, human
Protocol: FIGS. 14A, 14B and 14C display α3β1 and αvβ3 integrin-mediated spreading of endothelial cells on thrombospondin-1. […] Results are expressed as percent of the response for untreated cells, mean±S.D., n=3.
as §1

[2] = test system: MDA-MB-435 breast carcinoma cells
Protocol: MDA-MB-435 cell adhesion to microliter plate wells coated with 5 uM peptide 678 was determined in the presence of the indicated concentrations of soluble carboxamidomethyl-peptide 716 or peptide 716 covalently linked to FICOLL™ as previously described (Guo et al., 1997). After washing twice to remove unattached cells, adherent cells were quantified by detection of cellular hexosaminidase using p-nitrophenyl-N-acetylglucosaminide as substrate. Released p-nitrophenol was detected by absorbance at 405 nm. Results are mean+/−SD, n=3.
In this case, the adherent cells are quantified by detection of cellular hexosaminidase using p-nitrophenyl-N-acetylglucosaminidine as substrate. Released p-nitrophenol is detected by absorbance at 405 nm.

[3] = test system: MDA-MB-435 breast carcinoma cells; assay: Direct adhesion of MDA-MB-435 cells to peptides adsorbed on polystyrene; assay type: cell-based, human; details: peptides adsorbed at 10 μM (FIG. 2)
Protocol: as §1

[4] = test system: chick chorioallantoic membrane (CAM) angiogenesis; assay: Chick chorioallantoic membrane (CAM) angiogenesis assay; assay type: in vivo, chicken; details: relative to control gels, mean ± SD
Protocol: Fertilized Leghorn chicken eggs were obtained from Ramona Duck farm (Westminster, Calif.). At day 3 of development, the embryos were placed on 100 mm petri dishes. Assays were performed as previously described (Iruela-Arispe et al., 1999). […] Peptides were filtered on Centricon P100 prior to their analysis on the CAM assays to eliminate traces of endotoxin. Pellets were applied to the outer ⅓ of the CAM, and the assay was performed for 24 h. Detection of capillary growth was done by injection of FITC-dextran in the bloodstream and observation of the pellets under a fluorescent inverted microscope. Positive controls (growth factors and vehicle), as well as negative controls (vehicle alone) were placed in the same CAM and used as reference of 100% stimulation or baseline inhibition (0%), and response to the peptides was determined according to these internal controls. Assays were performed in duplicate in each CAM and in four independent CAMs (total of 8 pellets).

H69 SCLC cells = assay: SCLC cell adhesion to extracellular matrix proteins, H69; assay type: cell-based, human
Protocol: (§2) For adhesion assays of SCLC, these cells were washed once with RPMI 1640 and centrifuged at 400×g for 3 min. The pellet was suspended in 2.5 mM EDTA in PBS, pH 7.4 and incubated for 10 min at 37° C. After trituration three times and centrifugation, the cells were resuspended in RPMI 1640 containing 0.1% BSA (Sigma Co. St Louis, Mo.).
(§3) Adhesion of SCLC cells to extracellular matrix proteins. Extracellular matrix proteins or peptides in Dulbecco's PBS were adsorbed onto polystyrene by incubating overnight at 4° C. […] The supernatant fluid was removed, and the dishes were incubated with Tris-gelatin (ICN) (50 mM Tris-HCl, 110 mM NaCl, 5 mM CaCl2, 0.1 mM phenylmethylsulfonyl fluoride, 0.2% gelatin and 0.02% NaN3, pH 7.8) or Dulbeccos PBS with 1% BSA, as indicated, for 30 min to minimize nonspecific adhesion. The disks were washed twice with cold PBS, pH 7.2 and overlayed with dissociated SCLC cells prepared as described above at a density of 2.5×10^5/cm^2.
(§4) For inhibition studies with SCLC cells, inhibitors or antibodies were added and incubated with SCLC cells at the indicated concentrations. After incubation for 60-90 min at 37° C., the disks were washed by dipping six times in PBS, pH 7.2, fixed with 1% glutaraldehyde in PBS, pH 7.2, and stained with Diff-Quik. Attached cells were counted microscopically.

H345 SCLC cells = assay: SCLC cell adhesion to extracellular matrix proteins, H345; assay type: cell-based, human
Protocol: as §2, §3, §4

N417 SCLC cells = assay: SCLC cell adhesion to extracellular matrix proteins, N417; assay type: cell-based, human
Protocol: as §2, §3, §4

[5] = Table 3, 5 μM peptide 678, read-out: IC50 (μM), inhibition of MDA-MB-435 cell adhesion to immobilized peptide 678
[6] = microscopic adhesion assay, polystyrene coated with 5 μM peptide 678, peptides in solution, read-out: Inhibition of peptide 678 (IC50)
[7] = substrate coated at 6.2 μg/ml, mean ± S.D., n = 3

Protocol for BAE cells: Direct adhesion of BAE cells to the adsorbed peptides or uncoated substrate (control) are presented as mean±SD, n=3. […] Two flasks of BAE cells were grown to confluence. One flask was harvested and replated in fresh medium at 25% confluency. Fresh medium was added at the same time to the second flask. After 16 h, cells from both flasks were dissociated using EDTA and adhesion was measured on substrates coated with 40 μg/ml TSP1, 10 μg/ml vitronectin, 20 μg/ml plasma fibronectin, or 5 μg/ml type I collagen. The percent spread cells after 60 min is presented as mean±SD, n=3 for a representative experiment.
Results are presented as mean±SD, n=3. […] The percent spread cells was determined at 60 min.

## CC(C)C[C@H](NC(=O)[C@H](CCCNC(=N)N)NC(=O)[C@H](CC(C)C)NC(=O)[C@H](CC(N)=O)NC(=O)[C@H](CCCNC(=N)N)NC(=O)[C@@H](NC(=O)[C@H](CS)NC(=O)CNC(=O)[C@H](CCCNC(=N)N)NC(=O)[C@H](Cc1ccccc1)NC(=O)[C@H](CO)NC(=O)[C@H](C)NC(=O)[C@H](CCCNC(=N)N)NC(=O)[C@H](CO)NC(=O)[C@H](CO)NC(=O)[C@H](CC(C)C)NC(=O)[C@H](CS)NC(=O)[C@H](CC(N)=O)NC(=O)[C@H](CCC(N)=O)NC(=O)[C@@H](N)CCCCN)C(C)C)C(=O)N[C@@H](CO)C(=O)N[C@@H](CCCNC(=N)N)C(=O)O [Peptide 675, reference compound] (H-KQNCLSSRASFRGCVRNLRLSR-OH; N-terminus and C-terminus assumed)
[1]; read-out: IC50, inhibition of adhesion to either peptide or TSP1, tested in solution, data not shown
  IC50: 700 µM

## CN(Cc1nc2ccccc2[nH]1)C(=O)c1ccc2c(c1)CN(C)C(=O)[C@H](CC(=O)O)N2 [SB223245, reference compound]
HUVEC
  inhibition of HUVEC spreading on TSP1: did not significantly inhibit
  inhibition of HUVEC spreading on vitronectin: completely inhibited
BAE cells; single agent
  inhibition of BAE cell spreading on TSP1: partially inhibited

## AQGVLQNVRFVF [Peptide 697]
[1]; [5]
  IC50: 5 µM
[1]; [6]
  IC50: 5 µM

## Ac-LQNVRF-NH2 [Peptide 681, ac-LQNVRF-am]
[1]; [6]
  IC50: 500 µM

## Ac-QGVLQNVRF-OH [Peptide 704]
[2]
  IC50: ~100 µM

## ELTGAARKGSGRRLVKGPD [Hepl, focal adhesion disrupting peptide from the amino terminal domain of TSP1]
[3]
  promotion of MDA-MB-435 cell adhesion: did not promote

## FAGVLQNVRFVF [Peptide 696]
[1]; [5]
  IC50: 1.8 µM
[1]; [6]
  IC50: 1.8 µM
[4]; 5 μM peptide
  Angiogenic response (% inhibition): 5 ± 2%
[4]; 10 μM peptide
  Angiogenic response (% inhibition): 9 ± 3%
[4]; 20 μM peptide
  Angiogenic response (% inhibition): 12 ± 4%
[2]
  IC50: 12 µM

## FQGVAQNVRFVF [Peptide 695]
[1]; [5]
  IC50: 5 µM
[1]; [6]
  IC50: 5 µM

## FQGVLANVRFVF [Peptide 687]
[1]; [5]
  IC50: 3 µM
[1]; [6]
  IC50: 3 µM

## FQGVLNNVRFVF [Peptide 698]
[1]; [6]
  IC50: 3 µM

## FQGVLQNARFVF [Peptide 691]
[1]; [5]
  IC50: > 300 µM
[1]; [6]
  IC50: > 300 µM

## FQGVLQNVHFVF [Peptide 694]
[1]; [5]
  IC50: 54 µM
[1]; [6]
  IC50: 54 µM

## FQGVLQNVKFVF [Peptide 702]
[1]; [5]
  IC50: 6 µM
[1]; [6]
  IC50: 6 µM
[2]
  IC50: 25 µM

## FQGVLQNVQFVF [Peptide 703]
[1]; [5]
  IC50: > 100 µM
[1]; [6]
  IC50: > 100 µM
[2]
  IC50: 300 µM

## FQGVLQNVRAVF [Peptide 692]
[1]; [5]
  IC50: 18 µM
[1]; [6]
  IC50: 18 µM

## FQGVLQNVRF [Peptide 682]
[1]; [6]
  IC50: 6 µM

## FQGVLQNVRFVA [Peptide 693]
[1]; [5]
  IC50: 27 µM
[1]; [6]
  IC50: 27 µM

## GRGDSP [reference compound]
BAE cells; 300 μM GRGDSP (FIG. 14A)
  spreading response on TSP1 resistant to the peptide: Approximately 20%
BAE cells; combination with peptide 678
  inhibition of BAE cell spreading on TSP1, GRGDSP combined with the α3β1 binding peptide: completely inhibited

## KRFKQDGGWSHWSPWSS [Peptide 246]
[3]
  promotion of MDA-MB-435 cell adhesion: promoted adhesion

## KRFYVVMWKK [Peptide 4N1K]
[3]
  promotion of MDA-MB-435 cell adhesion: promoted adhesion

## LQNVRFVF [Peptide 684]
[1]; [6]
  IC50: 300 µM

## NGVQYRNC [Peptide 500]
[3]
  promotion of MDA-MB-435 cell adhesion: weaker adhesive activities

## QGVLQNVR [Peptide 683]
[1]; [6]
  IC50: > 300 µM

## QGVLQNVRFVF [Peptide 685]
[1]; [6]
  IC50: 24 µM

## SPWSSCSVTCGDGVITRIR [Mal-II]
[3]
  promotion of MDA-MB-435 cell adhesion: weaker adhesive activities

## TPGQVRTLWHDP [Peptide 701]
[1]; [6]
  IC50: > 300 µM

## VLQNVRFVF [Peptide 688]
[1]; [6]
  IC50: > 100 µM

## fibronectin
H69 SCLC cells; 12.5 μg/ml
  SCLC cell adhesion: 5 ± 1 cells/mm2
H69 SCLC cells; 25 μg/ml
  SCLC cell adhesion: 13 ± 3 cells/mm2
H69 SCLC cells; 50 μg/ml
  SCLC cell adhesion: 22 ± 7 cells/mm2
H69 SCLC cells; [7]
  SCLC cell adhesion: 1 ± 1 cells/mm2
H345 SCLC cells; 6.2 μg/ml
  SCLC cell adhesion: 0 cells/mm2
H345 SCLC cells; 12.5 μg/ml
  SCLC cell adhesion: 6 ± 2 cells/mm2
H345 SCLC cells; 25 μg/ml
  SCLC cell adhesion: 25 ± 5 cells/mm2
H345 SCLC cells; 50 μg/ml
  SCLC cell adhesion: 17 ± 5 cells/mm2
N417 SCLC cells; 6.2 μg/ml
  SCLC cell adhesion: 19 ± 2 cells/mm2
N417 SCLC cells; 12.5 μg/ml
  SCLC cell adhesion: 48 ± 4 cells/mm2
N417 SCLC cells; 25 μg/ml
  SCLC cell adhesion: 86 ± 6 cells/mm2
N417 SCLC cells; 50 μg/ml
  SCLC cell adhesion: 78 ± 2 cells/mm2

## laminin: murine laminin-1 purified from the EHS tumor
H69 SCLC cells; 12.5 μg/ml
  SCLC cell adhesion: 16 ± 1 cells/mm2
H69 SCLC cells; 25 μg/ml
  SCLC cell adhesion: 82 ± 8 cells/mm2
H69 SCLC cells; 50 μg/ml
  SCLC cell adhesion: 108 ± 11 cells/mm2
H69 SCLC cells; [7]
  SCLC cell adhesion: 1 ± 1 cells/mm2
H345 SCLC cells; 6.2 μg/ml
  SCLC cell adhesion: 6 ± 2 cells/mm2
H345 SCLC cells; 12.5 μg/ml
  SCLC cell adhesion: 8 ± 1 cells/mm2
H345 SCLC cells; 25 μg/ml
  SCLC cell adhesion: 151 ± 31 cells/mm2
H345 SCLC cells; 50 μg/ml
  SCLC cell adhesion: 148 ± 9 cells/mm2
N417 SCLC cells; 6.2 μg/ml
  SCLC cell adhesion: 5 ± 1 cells/mm2
N417 SCLC cells; 12.5 μg/ml
  SCLC cell adhesion: 78 ± 3 cells/mm2
N417 SCLC cells; 25 μg/ml
  SCLC cell adhesion: 151 ± 6 cells/mm2
N417 SCLC cells; 50 μg/ml
  SCLC cell adhesion: 160 ± 3 cells/mm2

## peptide 716 conjugated to FICOLL: peptide 716 covalently linked to FICOLL (polysucrose) (FQGVLQNVRFVF; not fully specified (N-terminus); also: number of peptides per FICOLL polymer not given here)
[2]; hexosaminidase detection
  inhibition of adhesion of MDA-MB-435 cells to peptide 678, compared to free peptide 716: enhanced

B1: vitronectin: human vitronectin from Sigma (protein, UniProt P04004 20-478, looked up)
Vitronectin: DQESCKGRCTEGFNVDKKCQCDELCSYYQSCCTDYTAECKPQVTRGDVFTMPEDEYTVYDDGEEKNNATVHEQVGGPSLTSDLQAQSKGNPEQTPVLKPEEEAPAPEVGASKPEGIDSRPETLHPGRPQPPAEEELCSGKPFDAFTDLKNGSLFAFRGQYCYELDEKAVRPGYPKLIRDVWGIEGPIDAAFTRINCQGKTYLFKGSQYWRFEDGVLDPDYPRNISDGFDGIPDNVDAALALPAHSYSGRERVYFFKGKQYWEYQFQHQPSQEECEGSSLSAVFEHFAMMQRDSWEDIFELLFWGRTSAGTRQPQFISRDWHGVPGQVDAAMAGRIYISGMAPRPSLAKKQRFRHRNRKGYRSQRGHSRGRNQNSRRPSRATWLSLFSSEESNLGANNYDDYRMDWLVPATCEPIQSVFFFSGDKYYRVNLRTRRVDTVDPPYPRSIAQYWLGCPAPGHL
BAE cells; cells harvested from a confluent monolayer
  percent spread BAE cells on substrate: approximately 60%
